Test results reported in patent US11807609B2, “Deuterated compounds as immunomodulators” (CHEMOCENTRYX, INC., priority 2017, dated 2023).
pIC50: −log10 of the molar value.

Molecular target: T1, C5aR (Homo sapiens, UniProt P21730)
T1 construct: added to freshly-drawn human blood (EDTA as anticoagulant); endogenous in cells; host or cells: leukocytes in freshly drawn human whole blood (EDTA)
T1 sequence (P21730 1-350): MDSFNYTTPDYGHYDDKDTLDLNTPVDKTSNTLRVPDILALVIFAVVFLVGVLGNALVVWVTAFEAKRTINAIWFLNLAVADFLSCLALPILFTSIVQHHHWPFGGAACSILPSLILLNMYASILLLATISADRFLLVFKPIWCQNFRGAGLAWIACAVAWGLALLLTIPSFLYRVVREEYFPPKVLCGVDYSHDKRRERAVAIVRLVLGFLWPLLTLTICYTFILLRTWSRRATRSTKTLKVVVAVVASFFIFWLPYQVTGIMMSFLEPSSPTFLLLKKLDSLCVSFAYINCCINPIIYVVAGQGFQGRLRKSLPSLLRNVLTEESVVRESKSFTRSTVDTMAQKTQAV
Assay: C5a-induced chemotaxis (migration) assay in freshly-drawn human blood, ChemoTX plate, CyQUANT readout
Type: cell-based
Conditions: migration of cells from human whole blood (EDTA) toward recombinant hC5a, 37° C., 90-180 minutes; read-out: Mig IC50
Method: A serial dilution of C5aR compound or an equivalent volume of DMSO was added to freshly-drawn human blood (EDTA as anticoagulant). Separately, recombinant hC5a was diluted with chemotaxis buffer, after which 29 μl of diluted chemokine was placed in the lower wells of a ChemoTX plate (Neuro Probe, Gaithersburg, MD). A 3-μm (pore size) polycarbonate membrane (Neuro Probe, Gaithersburg, MD) was placed onto the plate, and 20 μL of the blood/compound mixture was transferred onto each well of the membrane. The plates were incubated at 37° C. for 90-180 minutes, after which the polycarbonate membranes were removed and 5 μl of the DNA-intercalating agent CyQUANT (Invitrogen, Carlsbad, CA) was added to the lower wells. The amount of fluorescence, corresponding to the number of migrated cells, was measured using a Spectrafluor Plus plate reader (TECAN, San Jose, CA).
Compounds in Table 1 were prepared by methods as described in the Examples, and evaluated according to the assay above. The IC50 of the compounds are presented in Table 1 as follows: +++, IC50≤100 nM .

SMILES | pIC50
[2H]c1cc(C)c(C(F)(F)F)c([2H])c1NC(=O)[C@H]1CCCN(C(=O)c2c(F)cccc2C([2H])([2H])[2H])[C@H]1c1ccc(NC2CCCC2)cc1 [Compound 1.012] | ≥ 7.00
[2H]c1cc([C@H]2[C@@H](C(=O)Nc3c([2H])cc(C)c(C(F)(F)F)c3[2H])CCCN2C(=O)c2c(C)cccc2F)ccc1NC1CCCC1 [Compound 1.007] | ≥ 7.00
[2H]c1cc([C@H]2[C@@H](C(=O)Nc3ccc(C([2H])([2H])O)c(C(F)(F)F)c3)CCCN2C(=O)c2c(C)cccc2F)ccc1NC1CCCC1 [Compound 1.002] | ≥ 7.00
[2H]C([2H])(O)c1ccc(NC(=O)[C@H]2CCCN(C(=O)c3c(C)cccc3F)[C@H]2c2ccc(NC3CCCC3)cc2)cc1C(F)(F)F [Compound 1.006, (2R,3S)-2-(4-(cyclopentylamino)phenyl)-1-(2-fluoro-6-methylbenzoyl)-N-(4-(hydroxymethyl-d2)-3-(trifluoromethyl)phenyl)-piperidine-3-carboxamide] | ≥ 7.00
[2H]c1cc(C)c(C(=O)N2CCC[C@H](C(=O)Nc3ccc(C)c(C(F)(F)F)c3)[C@@H]2c2ccc(NC3CC([2H])([2H])C([2H])([2H])C3)cc2)c(F)c1 [Compound 1.013] | ≥ 7.00
[2H]C([2H])([2H])c1cccc(F)c1C(=O)N1CCC[C@H](C(=O)Nc2ccc(CO)c(C(F)(F)F)c2)[C@@H]1c1ccc(NC2CCCC2)cc1 [Compound 1.011] | ≥ 7.00
[2H]C1(Nc2ccc([C@H]3[C@@H](C(=O)Nc4ccc(C)c(C(F)(F)F)c4)CCCN3C(=O)c3c(C)cccc3F)cc2)CCCC1 [Compound 1.009] | ≥ 7.00
[2H]C1([2H])CC(Nc2ccc([C@H]3[C@@H](C(=O)Nc4ccc(C)c(C(F)(F)F)c4)CCCN3C(=O)c3c(C)cccc3F)cc2)CC1([2H])[2H] [Compound 1.005] | ≥ 7.00
[2H]C([2H])([2H])c1cccc(F)c1C(=O)N1CCC[C@H](C(=O)Nc2ccc(C([2H])([2H])O)c(C(F)(F)F)c2)[C@@H]1c1ccc(NC2CCCC2)cc1 [Compound 1.003, (2R,3S)-2-(4-(cyclopentylamino)phenyl)-1-(2-fluoro-6-(methyl-d3)benzoyl)-N-(4-(hydroxymethyl-d2)-3-(trifluoromethyl)phenyl)piperidine-3-carboxamide] | ≥ 7.00
[2H]c1cc(C)c(C(=O)N2CCC[C@H](C(=O)Nc3ccc(C([2H])([2H])O)c(C(F)(F)F)c3)[C@@H]2c2ccc(NC3CCCC3)cc2)c(F)c1 [Compound 1.001] | ≥ 7.00
[2H]c1cc([C@H]2[C@@H](C(=O)Nc3ccc(C)c(C(F)(F)F)c3)CCCN2C(=O)c2c(F)cccc2C([2H])([2H])[2H])ccc1NC1CCCC1 [Compound 1.004] | ≥ 7.00
[2H]C([2H])([2H])c1ccc(NC(=O)[C@H]2CCCN(C(=O)c3c(F)cccc3C([2H])([2H])[2H])[C@H]2c2ccc(NC3CCCC3)cc2)cc1C(F)(F)F [Compound 1.010, (2R,3S)-2-(4-(cyclopentylamino)phenyl)-1-(2-fluoro-6-(methyl-d3)benzoyl)-N-(4-(methyl-d3)-3-(trifluoromethyl)phenyl)piperidine-3-carboxamide] | ≥ 7.00
[2H]c1cc([C@H]2[C@@H](C(=O)Nc3ccc(C)c(C(F)(F)F)c3)CCCN2C(=O)c2c(C)cccc2F)ccc1NC1CCCC1 [Compound 1.008] | ≥ 7.00

Next, values leading:

pIC50 | SMILES
≥ 7.00 | [2H]C1([2H])C([2H])([2H])C([2H])([2H])C([2H])(Nc2ccc([C@H]3[C@@H](C(=O)Nc4ccc(C)c(C(F)(F)F)c4)CCCN3C(=O)c3c(C)cccc3F)cc2)C1([2H])[2H] [Compound 1.019, (2R,3S)-2-(4-((cyclopentyl-d9)amino)phenyl)-1-(2-fluoro-6-methylbenzoyl)-N-(4-methyl-3-(trifluoromethyl)phenyl)piperidine-3-carboxamide]
≥ 7.00 | [2H]C([2H])([2H])c1ccc(NC(=O)[C@H]2CCCN(C(=O)c3c(C)cccc3F)[C@H]2c2ccc(NC3CCCC3)cc2)cc1C(F)(F)F [Compound 1.021, (2R,3S)-2-(4-(cyclopentylamino)phenyl)-1-(2-fluoro-6-methylbenzoyl)-N-(4-(methyl-d3)-3-(trifluoromethyl)phenyl)piperidine-3-carboxamide]
≥ 7.00 | [2H]C([2H])([2H])c1cccc(F)c1C(=O)N1CCC[C@H](C(=O)Nc2ccc(C)c(C(F)(F)F)c2)[C@@H]1c1ccc(NC2CC([2H])([2H])C([2H])([2H])C2)cc1 [Compound 1.014, (2R,3S)-2-(4-((cyclopentyl-3,3,4,4-d4)amino)phenyl)-1-(2-fluoro-6-(methyl-d3)benzoyl)-N-(4-methyl-3-(trifluoromethyl)phenyl)piperidine-3-carboxamide]
≥ 7.00 | [2H]c1cc(C)c(C(=O)N2CCC[C@H](C(=O)Nc3ccc(C)c(C(F)(F)F)c3)[C@@H]2c2ccc(NC3CCCC3)cc2)c(F)c1 [Compound 1.016]
≥ 7.00 | [2H]c1cc(C)c(C(F)(F)F)c([2H])c1NC(=O)[C@H]1CCCN(C(=O)c2c(C)cccc2F)[C@H]1c1ccc(NC2CCCC2)cc1 [Compound 1.018, (2R,3S)-2-(4-(cyclopentylamino)phenyl)-1-(2-fluoro-6-methylbenzoyl)-N-(4-methyl-3-(trifluoromethyl)phenyl-2,6-d3)piperidine-3-carboxamide]
≥ 7.00 | [2H]C([2H])([2H])c1cccc(F)c1C(=O)N1CCC[C@H](C(=O)Nc2ccc(C)c(C(F)(F)F)c2)[C@@H]1c1ccc(NC2CCCC2)cc1 [Compound 1.017]
≥ 7.00 | [2H][C@]1(C(=O)Nc2ccc(C)c(C(F)(F)F)c2)CCCN(C(=O)c2c(C)cccc2F)[C@H]1c1ccc(NC2CCCC2)cc1 [Compound 1.015]
≥ 7.00 | [2H]c1cc(C)c(C(F)(F)F)cc1NC(=O)[C@H]1CCCN(C(=O)c2c(C)cccc2F)[C@H]1c1ccc(NC2CCCC2)cc1 [Compound 1.020]
